Experimental data reported in patent US11034702B2, “Thienoisoquinolines and their derivatives for the treatment of cancer” (VALORBEC, SOCIÉTÉ EN COMMANDITE, priority 2016, dated 2021).

What was measured:
[1] = system: HeLa (cervical adenocarcinoma) cells; assay: IC50 (viability) in HeLa cells; assay type: cell-based, human
Description: (§1) 19 variants with different structural modifications have been made. […] In particular, it is shown that C75 causes death in multiple cancer cells with IC50 values in the 100 nM range, including breast cancers (MCF7, BT549), lung cancer (A549), colorectal cancer (HCT116) in addition to HeLa cells (cervical cancer).

[2] = system: BT549 (breast ductal carcinoma) cells; assay: IC50 (viability) in BT549 cells; assay type: cell-based; settings: Homo sapiens, BT-549
Description: as §1

[3] = system: HFF1 (fibroblast) non-cancer cells; assay: IC50 (viability) in HFF1 non-cancer cells; assay type: cell-based; settings: Homo sapiens; HFF-1 non-cancer cells
Description: as §1

[4] = system: HCT116 (colorectal cancer) cells; assay: IC50 (cell death) in HCT116 cells; assay type: cell-based; settings: Homo sapiens, HCT-116; stated jointly for MCF7, BT549, A549, HCT116 and HeLa; HCT116 not in Table 3; read-out: IC50 values (death in multiple cancer cells)
Description: as §1

[5] = system: H1299 (non-small cell lung cancer) cells; assay: Mitotic arrest (percentage of cells in mitosis) in H1299 cells; assay type: cell-based, human; settings: H1299, least responsive line
Description: (§2) FIG. 2A) is a line graph showing the percentage of HCT116 (p53−/−) cells, A549 cells, HeLa cells and H1299 cells in mitosis after treatment with various concentrations of C75 for one population doubling time. All of the cell lines show an increase in the proportion of mitotic cells after treatment with 200 nM C75. The bars indicate standard deviation. […] While the mitotic spindles were not dramatically altered by C75 in HFF1 cells, they were monopolar (as shown) or fragmented in the other cell types. […] The mitotic spindles were more strongly fragmented after C75 treatment in these cells vs. the cells in FIG. 2B). […] While mitotic spindles recovered bipolarity after removing nocodazole, they remained multipolar after removing C75. FIG. 2F) is a series of time-lapse images of a live HeLa cell expressing GFP:tubulin after treatment with C75 as shown in 2D) and 2E). The scale bar for all cells is 10 μm. FIG. 2G) is a schematic showing the putative target for C75. […]
(§3) C75 was also tested for efficacy in different cancer cell lines. […] To further assess the role of C75 in affecting centrosomes, HeLa cells were treated with C75 for a short period of time (5 minutes), then C75 was removed and the cells were analyzed for spindle phenotypes (schematic in FIG. 2D). […]

[6] = system: MCF-7 cells; assay: Mitotic spindle phenotype in MCF-7 cells; assay type: cell-based, human; settings: MCF-7, 300 nM, 6-8 hours
Description: as §2, §3

[7] = system: BT-549 cells; assay: Mitotic spindle phenotype in BT-549 cells; assay type: cell-based, human; settings: BT-549, 300 nM, 6-8 hours
Description: as §2, §3

[8] = system: A549 cells; assay: Mitotic spindle phenotype in A549 cells; assay type: cell-based, human; settings: A549, 300 nM, 6-8 hours
Description: as §2, §3

[9] = system: A549 spheroids; assay: A549 multicellular tumour spheroids; assay type: cell-based, human
Description: FIG. 5A) is a series of images of HeLa multicellular tumor spheroids (spheroids) treated with control (500 nM C87), empty nanoparticles, 500 nM C75 and 250 nM C75-loaded nanoparticles over 3 days. […] The scale bar for all images is 100 μm. FIG. 5B) is a series images of HeLa spheroids after three days of treatment with control (500 nM C87) or 500 nM C75. The spheroids were stained for fluorescein diacetate (to detect live cells) and propidium iodide (to detect dead cells). […] The scale bar for all images is 100 μm. FIG. 5C) is a series of images of HCT116 spheroids treated with control (1 μM C87), 500 nM C75, 1 μM C75 and 500 nM C75-loaded nanoparticles over 5 days. […] The borders of the spheroids treated with 1 μM C75 or with 500 nM C75-loaded nanoparticles became highly irregular, indicative of loss of spheroid integrity. FIG. 5D) is a series images of HCT116 spheroids after six days of treatment with control (1 μM C87) or 1 μM C75. The spheroids were stained for fluorescein diacetate (live cells) and propidium iodide (dead cells). […] FIG. 5E) is a line graph showing the growth in surface area (%) of HCT116 spheroids treated with control (1 μM C87), 500 nM C75 and 1 μM C75 after six days. FIG. 5F) is a series of images of A549 spheroids treated with control (750 nM C87), 500 nM C75, 1 μM C75 and 500 nM C75-loaded nanoparticles over 5 days. […] The scale bar for all images is 100 μm. […]

COc1ccc(S(=O)(=O)N2Cc3ccccc3-c3sc(Br)cc32)cc1 [Compound C75]
IC50 ([1]; Homo sapiens, HeLa cells, cells printed in nM): 27 nM
efficacy (effect on viability) in cancer cells vs. non-cancer cells ([1]; comparison of Table 3 IC50 values, cancer vs. non-cancer cells): higher efficacy
IC50 [2]: 158 nM
IC50 [3]: 467 nM
IC50 [4]: ~100 nM
concentration at which mitotic cells increase [5]: 200 nM
mitotic spindle phenotype [6]: mix of monopolar, bipolar and multipolar spindles
mitotic spindle phenotype [7]: most of the spindles were severely fragmented
mitotic spindle phenotype [8]: most of the spindles were severely fragmented
effect on growth of A549 spheroids ([9]; 500 nM or 1 μM C75, 500 nM C75-loaded nanoparticles, over 5 days): regress the growth
live/dead staining of spheroids (fluorescein diacetate / propidium iodide) ([9]; A549 spheroids, 1 μM, six days): fewer live cells
